From patent publication EP0603240B1, “SAFENING HERBICIDAL PYRAZOLYLSULFONYLUREAS” (priority 1991, dated 1993)
Where two headings read alike, the source gives them in different places.

Columns and labels:
Type in all cases: in vivo
[1] = system: Giant foxtail (Setaria fabergi); experiment: Example 23, Procedure II: Antidote Nos. 15 and 17-21 against Herbicide No. 1, 13 days after application; details: Setaria, 312 h
Method: (§1) Containers were filled and compacted with a fumigated silt loam top soil to a depth of about 1.3 cm from the top of the container. A first container was designated as an untreated control, a second container was designated as a herbicide control, and a third container was designated as a herbicide + antidote test container. Each of the containers was seeded with a crop species. A measured amount of herbicide dispersed or dissolved in acetone was applied to a measured quantity of soil. To this same quantity of soil treated with herbicide, there was added a measured amount of antidote dispersed or dissolved in acetone. The quantity of soil treated with the herbicide and antidote was thoroughly mixed to incorporate the herbicide and antidote in the soil uniformly. The seed bed in the third container of soil was covered with the soil treated with the herbicide and antidote and the container was leveled. For each test series, the seed beds of the first and second containers were likewise covered by soil layers. the cover layer of the first container was not treated with herbicide or antidote.
(§2) The containers were then placed on a bench in a greenhouse and sub-irrigated as required for the duration of the test. […] Plant response is measured in terms of percent injury. Antidote efficacy is indicated as the difference in plant injury by the herbicide(s) without the antidote and with the antidote.
(§3) This procedure is the same as Procedure I, but modified in the manner that after incorporation of the chemicals (herbicide and antidote) the containers with the covered seedbed were treated with an initial overhead irrigation equivalent to 0.6 cm rainfall, then subsequently sub-irrigated as required on greenhouse benches.
(§4) In other greenhouse tests, using Procedure II described above, the safening efficacy of Antidote Nos. 15 and 17-21 was evaluated against Herbicide No. 1 in corn in the presence of Giant foxtail (Setaria fabergi) and Velvetleaf (Abutilon theophrasti) as representative annual monocotyledonous and dicotyledonous weeds, respectively.
(§5) Test results are shown in Tables 23A and 23B wherein the indicated plant inhibition represents the average of duplicate replications, with observations being made thirteen (13) days after application of the chemicals. Giant foxtail and Velvetleaf are represented by the symbols "GFT" and "VL", respectively. The data in Table 23A show the test results using the antidotes at 2.24 kg/ha, whereas in Table 23B, the antidotal rate was reduced to 0.56 kg/ha.

[2] = system: velvetleaf (Abutilon theophrasti); experiment: as above; details: Abutilon theophrasti, 312 h
Method: as §1, §2, §3, §4, §5

corn [3] = experiment: as above; details: Zea mays, 312 h, no antidote, 13 days after application; for inhibition at 140 g/ha: Herb. No. 1 0.14 Kg/Ha; for inhibition at 280 g/ha: Herb. No. 1 0.28 Kg/Ha; for inhibition at 560 g/ha: Herb. No. 1 0.56 Kg/Ha; for inhibition at 1120 g/ha: Herb. No. 1 1.12 Kg/Ha
Method: as §1, §2, §3, §4, §5

[4] = system: velvetleaf (Abutilon theophrasti); experiment: Example 11, Procedure II: Herbicide No. 1 + metazachlor (No. 14) with antidotes; details: no antidote
Method: as §1, §2, §3
(§6) In the series of greenhouse tests described below, for routine screening purposes the herbicide/antidote compositions were tested in crop/weed combinations involving corn as the crop and either or both of the weeds barnyardgrass (Echinochloa crusgalli), a monocotyledonous weed, and velvetleaf (Abutilon theophrasti), a dicotyledonous weed. In the tables below, these weeds are indicated by the symbols "BYG" and "VL", respectively.
(§7) In this example, yet another α-chloroacetanilide co-herbicide, metazachlor (Herbicide No. 14) was combined with Herbicide No. 1 for investigation of the effect of various safeners on that composition. Metazachlor is the active ingredient in the commercial herbicide BUTISAN® S, used here as a 500 g/L formulation.

[5] = system: barnyardgrass (Echinochloa crusgalli); experiment: as above; details: no antidote
Method: as §1, §2, §3, §6, §7

corn [6] = experiment: Example 7, Procedure II: Herbicide No. 1 + metolachlor (No. 12) with antidotes
Method: as §1, §2, §3
(§8) In this example, Procedure II described above was followed. The data from the tests in this example is shown in Table 6 and represents averages of duplicate replications.
(§9) The tests in this example followed the same procedure and antidotes used in Example 6. However, Herbicide No. 12 (metolachlor) was used as the co-herbicide with Herbicide No. 1.

[7] = system: velvetleaf (Abutilon theophrasti); experiment: as above
Method: as §1, §2, §3, §6, §8, §9

[8] = system: barnyardgrass (Echinochloa crusgalli); experiment: as above
Method: as §1, §2, §3, §6, §8, §9

corn [9] = experiment: Example 6, Procedure II: Herbicide No. 1 + alachlor (No. 7) with antidotes
Method: as §1, §2, §3
This example was designed to investigate the antidotal efficacy of a plurality of antidotal compounds against a composition comprising Herbicide No. 1 in combination with Herbicide No. 7 (alachlor). The antidotal compounds used herein were Nos. 1, 2, 7, 13 and 15.
as §8

[10] = read-out: % Inhibition Corn, Table 23A
[11] = read-out: % Inhibition Corn, Table 23B
[12] = Herbicide No.1 0.56 kg/ha alone
[13] = Herbicide No.1 1.12 kg/ha alone
[14] = Herbicide No.1 0.14 + No.12 3.36 kg/ha, no antidote
[15] = Herbicide No.1 0.14 + No.12 3.36 kg/ha, no antidote (second such line, r25)
[16] = Herbicide No.1 0.56 + No.12 3.36 kg/ha, no antidote (second such line, r24)
[17] = Herbicide No.1 0.56 + No.12 (metolachlor) 3.36 kg/ha, no antidote

COC(=O)c1c(Cl)nn(C)c1S(=O)(=O)NC(=O)Nc1nc(OC)cc(OC)n1 [Herbicide No. 1]
inhibition at 140 g/ha ([1]; read-out: % Inhibition GFT, Table 23A, Herb. No. 1 0.14 Kg/Ha, no antidote): 25% | inhibition at 280 g/ha ([1]; read-out: % Inhibition GFT, Table 23A, Herb. No. 1 0.28 Kg/Ha, no antidote): 35% | inhibition at 560 g/ha ([1]; read-out: % Inhibition GFT, Table 23A, Herb. No. 1 0.56 Kg/Ha, no antidote): 60% | inhibition at 1120 g/ha ([1]; read-out: % Inhibition GFT, Table 23A, Herb. No. 1 1.12 Kg/Ha, no antidote): 80% | inhibition at 140 g/ha ([1]; read-out: % Inhibition GFT, Table 23B, Herb. No. 1 0.14 Kg/Ha, no antidote): 30% | inhibition at 280 g/ha ([1]; read-out: % Inhibition GFT, Table 23B, Herb. No. 1 0.28 Kg/Ha, no antidote): 30% | inhibition at 560 g/ha ([1]; read-out: % Inhibition GFT, Table 23B, Herb. No. 1 0.56 Kg/Ha, no antidote): 60% | inhibition at 1120 g/ha ([1]; read-out: % Inhibition GFT, Table 23B, Herb. No. 1 1.12 Kg/Ha, no antidote): 70% | inhibition at 140 g/ha ([2]; read-out: % Inhibition VL, Table 23A, Herb. No. 1 0.14 Kg/Ha, no antidote): 90% | inhibition at 280 g/ha ([2]; read-out: % Inhibition VL, Table 23A, Herb. No. 1 0.28 Kg/Ha, no antidote): 90% | inhibition at 560 g/ha ([2]; read-out: % Inhibition VL, Table 23A, Herb. No. 1 0.56 Kg/Ha, no antidote): 95% | inhibition at 1120 g/ha ([2]; read-out: % Inhibition VL, Table 23A, Herb. No. 1 1.12 Kg/Ha, no antidote): 95% | inhibition at 140 g/ha ([2]; read-out: % Inhibition VL, Table 23B, Herb. No. 1 0.14 Kg/Ha, no antidote): 85% | inhibition at 280 g/ha ([2]; read-out: % Inhibition VL, Table 23B, Herb. No. 1 0.28 Kg/Ha, no antidote): 95% | inhibition at 560 g/ha ([2]; read-out: % Inhibition VL, Table 23B, Herb. No. 1 0.56 Kg/Ha, no antidote): 90% | inhibition at 1120 g/ha ([2]; read-out: % Inhibition VL, Table 23B, Herb. No. 1 1.12 Kg/Ha, no antidote): 90% | inhibition at 140 g/ha (corn [3]; [10]): 15% | inhibition at 280 g/ha (corn [3]; [10]): 25% | inhibition at 560 g/ha (corn [3]; [10]): 50% | inhibition at 1120 g/ha (corn [3]; [10]): 65% | inhibition at 140 g/ha (corn [3]; [11]): 10% | inhibition at 280 g/ha (corn [3]; [11]): 25% | inhibition at 560 g/ha (corn [3]; [11]): 40% | inhibition at 1120 g/ha (corn [3]; [11]): 60% | % Injury VL [4, 12]: 75% | % Injury VL [4, 13]: 80% | % Injury BYG [5, 12]: 75% | % Injury BYG [5, 13]: 80% | % Injury Corn (corn [6]; [14]): 20% | % Injury Corn (corn [6]; [15]): 0% | % Injury Corn (corn [6]; [16]): 10% | % Injury Corn (corn [6]; [17]): 30% | % Injury VL [7, 14]: 70% | % Injury VL [7, 15]: 60% | % Injury VL [7, 16]: 75% | % Injury VL [7, 17]: 85% | % Injury BYG [8, 14]: 100% | % Injury BYG [8, 15]: 35% | % Injury BYG [8, 16]: 75% | % Injury BYG [8, 17]: 100% | % Injury Corn (corn [9]; Herbicide No.1 0.14 + No.7 4.48 kg/ha, no antidote): 20% | % Injury Corn (corn [9]; Herbicide No.1 0.14 kg/ha alone): 5% | % Injury Corn (corn [9]; Herbicide No.1 0.56 + No.7 (alachlor) 4.48 kg/ha, no antidote, average of duplicates): 30% | % Injury Corn (corn [9]; [12]): 25%
